Nine compounds from patent publication US9688710B2, “Inhibitors of sodium glucose cotransporter 1” (LEXICON PHARMACEUTICALS, INC., priority 2012, dated 2017) can be followed below.

The structures appear in SMILES notation.

In general, IC50 refers to the concentration needed to halve the response being measured.

Experiment [1] concerns the target Human sodium/glucose co-transporter type 2 (SGLT2) (Homo sapiens (Human), UniProt P31639). The experiment is described as follows: In vitro human SGLT2 inhibition assay (14C-AMG uptake). It is filed as cell-based. Details: key to SGLT2 (human SGLT2 IC50): ***: a value less than 0.01 μM; **: a value less than 0.1 μM; *: a value less than 1 μM; —: a value not measured or exceeding μM. To be noted: HEK293 cells expressing human HA-SGLT2, 14C-AMG uptake. The gist of the method:
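HEK293 cells stably expressing HA-tagged human SGLT2, seeded overnight, washed into Na+-containing HEPES/Tris uptake buffer with 1 mg/mL BSA, pH 7.3. Compound added, then 14C-AMG (100 nCi); 1-2 h at 37 °C, 5% CO2. Washed cells counted by scintillation for 14C-AMG uptake.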

For experiment [2], the target named is Human sodium/glucose co-transporter type 1 (SGLT1) (Homo sapiens (Human), UniProt P13866). Briefly: In vitro human SGLT1 inhibition assay (14C-AMG uptake). It is filed as cell-based. Details: key to SGLT1 (human SGLT1 IC50): ***: a value less than 0.01 μM; **: a value less than 0.1 μM; *: a value less than 1 μM; —: a value not measured or exceeding μM. To be noted: HEK293 cells expressing human HA-SGLT1, 14C-AMG uptake. The gist of the method:
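HEK293 cells stably expressing human HA-tagged SGLT1 (30,000/well, overnight) were washed into Na+-containing uptake buffer (140 mM NaCl, HEPES/Tris, 1 mg/mL BSA, pH 7.3). Cells then received compound plus 100 nCi 14C-AMG for 1–2 h at 37 °C; after washing, AMG uptake was quantified by scintillation counting.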

Human sodium/glucose co-transporter type 2 (SGLT2), sequence (P31639 whole entry): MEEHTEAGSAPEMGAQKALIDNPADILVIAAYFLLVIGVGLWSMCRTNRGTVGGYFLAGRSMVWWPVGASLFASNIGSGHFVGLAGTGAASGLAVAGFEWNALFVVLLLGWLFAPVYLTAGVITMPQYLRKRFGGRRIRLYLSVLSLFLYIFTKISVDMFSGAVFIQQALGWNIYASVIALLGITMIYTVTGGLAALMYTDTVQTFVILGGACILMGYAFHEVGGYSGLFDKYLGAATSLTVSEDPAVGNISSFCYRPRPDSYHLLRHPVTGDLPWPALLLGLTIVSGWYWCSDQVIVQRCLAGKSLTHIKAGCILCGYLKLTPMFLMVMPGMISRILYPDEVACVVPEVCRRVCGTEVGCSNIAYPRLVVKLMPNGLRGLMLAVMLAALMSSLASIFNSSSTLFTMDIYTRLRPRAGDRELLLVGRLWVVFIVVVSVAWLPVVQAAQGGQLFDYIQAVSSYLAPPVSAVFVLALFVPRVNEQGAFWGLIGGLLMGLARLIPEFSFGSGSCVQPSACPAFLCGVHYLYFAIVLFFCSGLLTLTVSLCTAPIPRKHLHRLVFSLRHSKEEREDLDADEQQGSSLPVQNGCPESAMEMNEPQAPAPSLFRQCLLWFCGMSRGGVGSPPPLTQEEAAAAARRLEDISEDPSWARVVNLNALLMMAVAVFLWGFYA
Human sodium/glucose co-transporter type 1 (SGLT1), sequence (P13866 whole entry): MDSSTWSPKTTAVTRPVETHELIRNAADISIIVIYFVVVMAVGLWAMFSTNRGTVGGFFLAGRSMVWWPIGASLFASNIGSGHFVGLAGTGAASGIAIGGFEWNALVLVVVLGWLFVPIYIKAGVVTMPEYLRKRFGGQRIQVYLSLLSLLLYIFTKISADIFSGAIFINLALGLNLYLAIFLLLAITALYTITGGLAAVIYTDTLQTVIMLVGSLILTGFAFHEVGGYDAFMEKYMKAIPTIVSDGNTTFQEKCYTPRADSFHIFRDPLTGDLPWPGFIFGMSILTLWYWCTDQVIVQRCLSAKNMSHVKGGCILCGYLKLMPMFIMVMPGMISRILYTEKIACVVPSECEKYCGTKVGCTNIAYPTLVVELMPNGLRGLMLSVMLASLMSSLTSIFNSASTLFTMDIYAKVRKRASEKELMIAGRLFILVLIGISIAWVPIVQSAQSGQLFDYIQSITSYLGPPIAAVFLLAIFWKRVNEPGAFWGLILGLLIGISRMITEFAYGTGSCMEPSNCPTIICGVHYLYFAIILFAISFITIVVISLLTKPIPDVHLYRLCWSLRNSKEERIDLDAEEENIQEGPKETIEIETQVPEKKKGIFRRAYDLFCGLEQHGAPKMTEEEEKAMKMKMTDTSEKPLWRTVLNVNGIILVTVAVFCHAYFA

On to `CS[C@H]1O[C@@H](c2ccc(C)c(Cc3ccc(OCCCC(=O)N[C@H](C)C(N)=O)cc3)c2)[C@H](O)[C@@H](O)[C@@H]1O` [N-((R)-1-amino-1-oxopropan-2-yl)-4-(4-(2-methyl-5-((2S,3R,4R,5S,6R)-3,4,5-trihydroxy-6-(methylthio)tetrahydro-2H-pyran-2-yl)benzyl)phenoxy)butanamide], for which the half-inhibitory concentration (IC50) in experiment [1] and in experiment [2] was < 10 nM in each case.
Turning to `CS[C@H]1O[C@@H](c2ccc(C)c(Cc3ccc(OCCCC(=O)N[C@@H](C)C(N)=O)cc3)c2)[C@H](O)[C@@H](O)[C@@H]1O` [N-((S)-1-amino-1-oxopropan-2-yl)-4-(4-(2-methyl-5-((2S,3R,4R,5S,6R)-3,4,5-trihydroxy-6-(methylthio)tetrahydro-2H-pyran-2-yl)benzyl)phenoxy)butanamide], the IC50 in experiment [1] was < 10 nM; in experiment [2], < 100 nM.
For `CS[C@H]1O[C@@H](c2ccc(Cl)c(Cc3ccc(OCCCC(=O)N[C@@H](CO)C(N)=O)cc3)c2)[C@H](O)[C@@H](O)[C@@H]1O` [N-((S)-1-amino-3-hydroxy-1-oxopropan-2-yl)-4-(4-(2-chloro-5-((2S,3R,4R,5S,6R)-3,4,5-trihydroxy-6-(methylthio)tetrahydro-2H-pyran-2-yl)benzyl)phenoxy)butanamide] the same measures were < 10 nM and < 100 nM.
For the compound `CS[C@H]1O[C@@H](c2ccc(C)c(Cc3ccc(OCCCC(=O)N[C@@H](CO)C(N)=O)cc3)c2)[C@H](O)[C@@H](O)[C@@H]1O` [N-((S)-1-amino-3-hydroxy-1-oxopropan-2-yl)-4-(4-(2-methyl-5-((2S,3R,4R,5S,6R)-3,4,5-trihydroxy-6-(methylthio)tetrahydro-2H-pyran-2-yl)benzyl)phenoxy)butanamide], the IC50 in experiment [1] is < 10 nM; in experiment [2] it was < 100 nM.
In the case of `CCNC(=O)CCCOc1ccc(Cc2cc([C@@H]3O[C@H](SC)[C@@H](O)[C@H](O)[C@H]3O)ccc2C)cc1` [N-ethyl-4-(4-(2-methyl-5-((2S,3R,4R,5S,6R)-3,4,5-trihydroxy-6-(methylthio)tetrahydro-2H-pyran-2-yl)benzyl)phenoxy)butanamide], the IC50 in experiment [1] and in experiment [2] was < 10 nM each time.
With `COC(=O)CCCOc1ccc(Cc2cc([C@@H]3O[C@H](SC)[C@@H](O)[C@H](O)[C@H]3O)ccc2Cl)cc1` [methyl 4-(4-(2-chloro-5-((2S,3R,4R,5S,6R)-3,4,5-trihydroxy-6-(methylthio)tetrahydro-2H-pyran-2-yl)benzyl)phenoxy)butanoate], the “SGLT2 (human SGLT2 IC50)” value in experiment [1] is listed as “—”. Moreover, the “SGLT1 (human SGLT1 IC50)” value in experiment [2] is “—”.
On to `CS[C@H]1O[C@@H](c2ccc(C)c(Cc3ccc(CCCC(=O)NC(C)(C)C(=O)NC4CCN(C(=O)OC(C)(C)C)CC4)cc3)c2)[C@H](O)[C@@H](O)[C@@H]1O` [tert-butyl 4-(2-methyl-2-(4-(4-(2-methyl-5-((2S,3R,4R,5S,6R)-3,4,5-trihydroxy-6-(methylthio)tetrahydro-2H-pyran-2-yl)benzyl)phenyl)butanamido)propanamido)piperidine-1-carboxylate], for which the IC50 in experiment [1] and in experiment [2] was < 10 nM throughout.
On to `CS[C@H]1O[C@@H](c2ccc(C)c(Cc3ccc(CCCC(=O)NC(C)(C)C(=O)N4CCN(C(=O)OC(C)(C)C)CC4)cc3)c2)[C@H](O)[C@@H](O)[C@@H]1O` [tert-butyl 4-(2-methyl-2-(4-(4-(2-methyl-5-((2S,3R,4R,5S,6R)-3,4,5-trihydroxy-6-(methylthio)tetrahydro-2H-pyran-2-yl)benzyl)phenyl)butanamido)propanoyl)piperazine-1-carboxylate], for which the IC50 in experiment [1] and in experiment [2] was < 10 nM in each case.
`CS[C@H]1O[C@@H](c2ccc(C)c(Cc3ccc(CCCC(=O)NC(C)(C)C(=O)N4CCC(NC(=O)OC(C)(C)C)CC4)cc3)c2)[C@H](O)[C@@H](O)[C@@H]1O` [tert-butyl (1-(2-methyl-2-(4-(4-(2-methyl-5-((2S,3R,4R,5S,6R)-3,4,5-trihydroxy-6-(methylthio)tetrahydro-2H-pyran-2-yl)benzyl)phenyl)butanamido)propanoyl)piperidin-4-yl)carbamate]: the half-inhibitory concentration (IC50) in experiment [1] and in experiment [2] was < 10 nM each time.
